Columns and labels:
Format in all cases: in vivo
[1] = test system: Franklinella occidentalis; assay: Insecticidal activity against Franklinella occidentalis nymphs, sprayed bean leaves
Method: (§1) After the compound to be determined was dissolved in a mixed solvent of acetone/methanol (1:1), it was diluted with water containing 0.1% (wt) Tween-80 to a desired concentration.
(§2) Mythimna separata, Diamondback moth, Chilo suppressalis, Spodoptera exigua, Myzus persicae, and Franklinella occidentalis were used as targets, and the activity was tested by an Airbrush spray method.
Determination method: fresh bean leaves cultivated in a greenhouse were selected, a hand-held Airbrush sprayer was used to spray uniformly, each treatment was 1 mL, and after being air-dried naturally, the leaves were placed in a finger-shaped tube. Neat and healthy Franklinella occidentalis nymphs were introduced, there were 15 nymphs for each treatment, 3 replicates were set for the experiment, and water treatment was set as a blank control. After the treatment, the leaves were put into an indoor culture room for culture at 24° C., a relative humidity of 60-70%, and natural light. After 72 h, the number of live insects was investigated and the mortality rate was calculated.

Chilo suppressalis = assay: Insecticidal activity against Chilo suppressalis, sprayed rice stems; details: 72 h, 0.625 mg/L, 3 days after the administration, 3rd-instar larvae, read-out: mortality rate against Chilo suppressalis
Method: as §1, §2
Determination method: 1) Preparation of rice seedlings: rice was cultured in a plastic small cup with a diameter of 4.5 cm and a height of 4 cm in a constant temperature room (the temperature was 26-28° C., the relative humidity was about 60-80%, and the illumination was 16hL:8hD), when the rice grown to a 4-5 leaf stage, robust and uniformly grown rice seedlings were selected for pharmaceutical treatment, and 3 replicates were set for each treatment. 2) Preparation of test insects: 3rd-instar larvae of Chilo suppressalis were continuously reared indoors. 3) Rice stems were sprayed and insects were introduced. A spray method was used to treat whole rice seedlings with uniform spray, and each treatment was 15 mL. Blank controls were treated firstly, and then the above operation was repeated in an order of experimental concentrations from low to high. After the spray treatment of the rice seedlings, they were placed in the shade to air-dry drug liquid, about 5 cm of the stem from a basal part of the stem was cut and fed to the test insects. A glass culture dish with a diameter of 90 mm was prepared, filter paper was placed on the bottom of the dish, then water was added to moisturize. About 5 rice stems were placed in each dish, 10 larvae were introduced, and the culture dish was closed with non-woven fabric and placed in the constant-temperature room for culture. 3 days after the administration, the number of residual live insects was investigated.

Myzus persicae = assay: Insecticidal activity against Myzus persicae, Airbrush spray on cabbage leaves; details: 50 mg/L, after 48 h, read-out: mortality rate against Myzus persicae
Method: as §1, §2
Determination method: a culture dish with a diameter of 6 cm was taken, the bottom of the dish was covered by a layer of filter paper, and an appropriate amount of tap water was added to moisturize the paper. Cabbage leaves with an appropriate size (the diameter was about 3 cm) and 15-30 aphids grown were cut from cabbage plants used to culture Myzus persicae, winged aphids and aphids on the front of the leave were removed, and it was placed in the culture dish while the back of the leave was upward. The pressure of airbrush spray treatment was 10 psi (about 0.7 kg/cm^2), the liquid spray volume was 0.5 mL, and there were 3 replicates for each treatment. After the treatment, the leave was put into an observation room for culture at 25° C. and a relative humidity of 60-70%. After 48 h, the number of live insects was investigated and the mortality rate was calculated.

Mythimna separata = assay: Insecticidal activity against Mythimna separata, Airbrush spray on maize leaf pieces; details: 72 h, 0.05 mg/L, 3 days after the administration, 3rd-instar larvae, read-out: mortality rate against Mythimna separata
Method: as §1, §2
Determination method: maize leaves were cut into 2 cm leaf pieces, and the front and back of each leaf piece were sprayed under an Airbrush spray treatment pressure of 10 psi (approximate to 0.7 kg/cm^2) and with a spray volume of 0.5 mL. After drying in the shade, 10 3rd-instar larvae were inoculated for each treatment, and each treatment was repeated for 3 times. After the treatment, the leaf pieces were put into an observation chamber at 25° C. and with a relative humidity of 60% to 70%, and the number of living larvae was investigated 3 days after the administration of the compounds, and the mortality rates were calculated.

Diamondback moth = assay: Insecticidal activity against Diamondback moth, Airbrush spray on cabbage leaf discs; details: Plutella xylostella, foliar, 72 h, 3 days after the administration; for mortality at 0.156 µg/mL: 0.156 mg/L, read-out: Mortality rate (%, 3 days after the administration) 0.156 mg/L; for mortality at 0.156 µg/mL / mortality at 0.313 µg/mL / mortality at 10 µg/mL: Diamondback moth; for mortality at 0.313 µg/mL: 0.313 mg/L, read-out: Mortality rate (%, 3 days after the administration) 0.313 mg/L; for mortality at 1.25 µg/mL: 1.25 mg/L, 3rd-instar larvae, read-out: mortality rate against Diamondback moth; for mortality at 10 µg/mL: 10 mg/L, read-out: Mortality rate (%, 3 days after the administration) 10 mg/L
Method: as §1, §2
Determination method: cabbage leaves were formed into leaf discs having a diameter of 2 cm using a puncher, and the front and back of each leaf disc were sprayed under an Airbrush spray treatment pressure of 10 psi (approximate to 0.7 kg/cm^2) and with a spray volume of 0.5 mL. After drying in the shade, 10 3rd-instar larvae were inoculated for each treatment, and each treatment was repeated for 3 times. After the treatment, the leaf discs were placed into an observation chamber at 25° C. and with a relative humidity of 60% to 70%, and the number of living larvae was investigated 3 days after the administration of the compounds, and the mortality rates were calculated.

cat flea = assay: Insecticidal experiment on cat flea, thin film in culture dish; details: Ctenocephalides felis, 72 h, read-out: mortality rate, cat flea
Method: 4 mg of the compound to be determined was dissolved in 40 mL of acetone to obtain an acetone solution with a concentration of 100 mg/L. 400 μL of the drug solution was applied on the bottom and sides of a culture dish with an inner diameter of 5.3 cm, then after acetone was evaporated, a thin film of the compound of the present invention was made on the inner wall of the culture dish. The inner wall of the culture dish used was 40 cm^2, and the treatment dosage was 1 μg/cm^2. 10 adult cat fleas (mixed male and female) were put into the dish, and it was stored in a constant-temperature room at 25° C. after being covered. The number of dead insects after 72 h was checked and the mortality rate was calculated. The experiment was repeated for 3 times.

Spodoptera exigua = assay: Insecticidal activity against Spodoptera exigua, leaf disc dipping feeding method; details: foliar, 72 h, 0.625 mg/L, 3 days after the administration, read-out: mortality rate against Spodoptera exigua
Method: After the compound to be determined was dissolved in a mixed solvent of acetone/methanol (1:1), it was diluted with water containing 0.1% (wt) Tween-80 to a desired concentration. […]
Determination method: the activity was tested by using a leaf disc dipping feeding method. Leaf discs were dipped in a drug solution for 10 s, and placed in a culture dish after being air-dried, there were 4 discs in each dish, and a filter paper was placed in the culture dish for moisture retention. 10 test insects of Spodoptera exigua were introduced to each dish, with 3 replicates.
They were placed in a light incubator for culture at a temperature of 25° C. and an illumination of 14hL:10hD. On the 1st, 2nd, and 3rd day after the administration, the number of dead Spodoptera exigua was investigated and the mortality rate was calculated.

| SMILES | Mortality rate (%, 3 days after the administration) 10 mg/L [1] | Mortality rate (%, 3 days after the administration) 100 mg/L [1] | mortality at 0.625 µg/mL (Chilo suppressalis) | mortality at 50 µg/mL (Myzus persicae) | mortality at 0.05 µg/mL (Mythimna separata) | mortality at 0.156 µg/mL (Diamondback moth) | mortality at 0.313 µg/mL (Diamondback moth) | mortality at 1.25 µg/mL (Diamondback moth) | mortality at 10 µg/mL (Diamondback moth) | mortality at 1 µg/cm2 (cat flea) | mortality at 0.625 µg/mL (Spodoptera exigua) |
| --- | --- | --- | --- | --- | --- | --- | --- | --- | --- | --- | --- |
| C#CCN(C(=O)c1ccccc1)c1cccc(C(=O)Nc2c(Br)cc(C(F)(C(F)(F)F)C(F)(F)F)cc2C(F)(F)F)c1F [Compound 31] | 97.78% | 100% | > 90% | > 90% | > 90% | 100% | 100% | > 90% | 100% | > 90% | > 90% |
| C=CCN(C(=O)c1ccc(F)nc1)c1cccc(C(=O)Nc2c(Br)cc(C(F)(C(F)(F)F)C(F)(F)F)cc2C(F)(F)F)c1F [Compound 19] | 100% | 100% | > 90% | > 90% | > 90% | 100% | 100% | > 90% | 100% | > 90% | > 90% |
| C=CCN(C(=O)c1ccc(F)cc1)c1cccc(C(=O)Nc2c(I)cc(C(F)(C(F)(F)F)C(F)(F)F)cc2C(F)(F)F)c1F [Compound 8] | 88.89% | 100% | > 90% | > 90% | > 90% | 100% | 100% | > 90% | 100% | > 90% | > 90% |
| C#CCN(C(=O)c1ccc(F)nc1)c1cccc(C(=O)Nc2c(I)cc(C(F)(C(F)(F)F)C(F)(F)F)cc2C(F)(F)F)c1F [Compound 48] | 100% | 100% | > 90% | > 90% | > 90% | 100% | 100% | > 90% | 100% | > 90% | > 90% |
| C#CCN(C(=O)c1ccc(F)nc1)c1cccc(C(=O)Nc2c(Br)cc(C(F)(C(F)(F)F)C(F)(F)F)cc2C(F)(F)F)c1F [Compound 47] | 100% | 100% | > 90% | > 90% | > 90% | 100% | 100% | > 90% | 100% | > 90% | > 90% |

Source: patent US20240199552A1, “AMIDE COMPOUND AND USE THEREOF” (Metisa Biotechnology Co., Ltd, priority 2021, published 2024)
